Data set [1] concerns T1, CTL2-GFP (C. trachomatis L2/434/Bu, GFP-expressing).
T1 construct: L2/434/Bu, GFP-expressing
Kind of data set: microbe, parasite or virus in culture. The conditions noted are these: Chlamydia trachomatis, HeLa, 28.5 h; mean of GFP and inclusion area. On the set-up: C. trachomatis growth in HeLa, dose-response, mean of bulk GFP fluorescence and imaged total inclusion area. The text has this: (§1) We screened a library of 36,785 small molecules displaying drug-like properties and covering a wide chemical space (Fig 1A and S2A Data). In this process, we also complemented the assay described above with an imaging-based readout (Fig 1B). After measurements of bulk GFP and resorufin fluorescence, cells were fixed, stained with the DNA dye Hoechst, and imaged at a high-content imaging platform to detect chlamydial inclusions (GFP) and host cell nuclei (Hoechst). The total area and number of inclusions in individual wells and the number of nuclei then served as additional proxies for chlamydial growth and host cell viability. […] MICs were calculated as described above.

The nature of data set [2]: in vitro. On the set-up: Viability of infected HeLa host cells, resazurin conversion, bulk resorufin fluorescence relative to DMSO. To be noted: human, hela cells; bulk resorufin, mean of 3.
The test system of data set [3] is T1, CTL2-GFP (C. trachomatis L2/434/Bu, GFP-expressing). Kind of data set: microbe, parasite or virus in culture. On the set-up: species or system HeLa; C. trachomatis growth in HeLa, dose-response, mean of bulk GFP fluorescence and imaged total inclusion area. The conditions noted are these: Chlamydia trachomatis, 28.5 h; mean of GFP and inclusion area.
Excerpt: as §1

The next data set relates to HeLa. To be noted: bulk resorufin, single well, 28.5 h, 10 µM, Bulk resorufin fluorescence.
Data set [4] is described as follows: in vitro. To be noted: human, hela cells, % viability.

Converted amounts (≈) assume the structure as drawn.

For the compound `CCCN(CCC)CCc1cccc2c1CCN2C(=O)c1cc2ccccc2s1` [c15e], it took 1.15 µM to reach half-maximal inhibition in data set [1] (IC50). Further, in the data set “in vitro [2]”, the viability (in general, a read-out of living cells in per cent, often relative to untreated cells) at 28.5 h, 0.000416667 µM came to 87.3%; the viability at 28.5 h, 0.00125 µM stood at 89.2%; the viability at 28.5 h, 0.00375 µM came to 89.8%; the viability at 28.5 h, 0.0123333 µM worked out at 88.8%. Further, in “in vitro [2]”, the viability at 28.5 h, 0.037 µM came to 85.5%; the viability at 28.5 h, 0.111 µM came to 94.8%; the viability at 28.5 h, 0.333 µM is 94.4%; the viability at 28.5 h, 1 µM was determined as 90.6%. In “in vitro [2]”, the viability at 28.5 h, 3 µM turned out to be 91.2%; the viability at 28.5 h, 10 µM is 99.9%; the viability at 28.5 h, 30 µM was 91.3%. Moreover, the MIC in data set [3] came to 3.22 µM (≈ 1.31 µg/mL).
As for `Oc1c(CN2CCN(c3ccc(F)cc3)CC2)cc(Br)c2cccnc12` [c43e], the IC50 (commonly the concentration that gives 50% inhibition) in data set [1] is 5.48 µM. Also, in “in vitro [2]”, the viability at 28.5 h, 0.000416667 µM is 97.2%; the viability at 28.5 h, 0.00125 µM was 91.7%; the viability at 28.5 h, 0.00375 µM was 92.6%; the viability at 28.5 h, 0.0123333 µM is 88.5%. In addition, in the data set “in vitro [2]”, the viability at 28.5 h, 0.037 µM is 91.8%; the viability at 28.5 h, 0.111 µM amounted to 86.8%; the viability at 28.5 h, 0.333 µM stood at 90%; the viability at 28.5 h, 1 µM turned out to be 86.1%. In “in vitro [2]”, the viability at 28.5 h, 3 µM was 88.5%; the viability at 28.5 h, 10 µM was 84.3%; the viability at 28.5 h, 30 µM was 85.2%. The compound also had an MIC in data set [3] of 9.58 µM (≈ 3.99 µg/mL).
`O=C(CSc1nnc(-c2cccnc2)o1)c1ccccc1` [c35e] gave an IC50 in data set [1] of 3.71 µM. In the data set “in vitro [2]”, the viability at 28.5 h, 0.000416667 µM stood at 99.4%; the viability at 28.5 h, 0.00125 µM was determined as 96.5%; the viability at 28.5 h, 0.00375 µM turned out to be 91.9%; the viability at 28.5 h, 0.0123333 µM was found to be 91.4%. Also, in “in vitro [2]”, the viability at 28.5 h, 0.037 µM worked out at 87%; the viability at 28.5 h, 0.111 µM turned out to be 90.5%; the viability at 28.5 h, 0.333 µM was 87%; the viability at 28.5 h, 1 µM was 90.5%. Moreover, in “in vitro [2]”, the viability at 28.5 h, 3 µM is 84.4%; the viability at 28.5 h, 10 µM worked out at 87%; the viability at 28.5 h, 30 µM turned out to be 88.7%. For the same compound, the MIC in data set [3] came to 11.9 µM (≈ 3.54 µg/mL).
As for `CCC(c1ccc(F)cc1)N(C)C(=O)Cn1cc(C(=O)NC2CCCCC2)ccc1=O` (stereo not shown) [c44e], in data set [1], inhibition was half-maximal at 5.83 µM (IC50). Further, in “in vitro [2]”, the viability at 28.5 h, 0.000416667 µM worked out at 93.4%; the viability at 28.5 h, 0.00125 µM was determined as 91.8%; the viability at 28.5 h, 0.00375 µM was determined as 93.8%; the viability at 28.5 h, 0.0123333 µM came to 89.2%. Further, in “in vitro [2]”, the viability at 28.5 h, 0.037 µM is 90.8%; the viability at 28.5 h, 0.111 µM amounted to 86.7%; the viability at 28.5 h, 0.333 µM was 87.7%; the viability at 28.5 h, 1 µM was 85.4%. In the data set “in vitro [2]”, the viability at 28.5 h, 3 µM was 87.9%; the viability at 28.5 h, 10 µM was found to be 83.2%; the viability at 28.5 h, 30 µM came to 87.2%.
`CCCCc1ccc(NC(=N)Nc2nc(C)cc(C)n2)cc1` [c33e] gave an IC50 in data set [1] of 3.25 µM. For the same compound, in the data set “in vitro [2]”, the viability at 28.5 h, 0.000416667 µM stood at 90.9%; the viability at 28.5 h, 0.00125 µM came out at 88%; the viability at 28.5 h, 0.00375 µM was 91.3%; the viability at 28.5 h, 0.0123333 µM came out at 91.5%. In “in vitro [2]”, the viability at 28.5 h, 0.037 µM is 93.1%; the viability at 28.5 h, 0.111 µM is 92.6%; the viability at 28.5 h, 0.333 µM was found to be 94.3%; the viability at 28.5 h, 1 µM came to 88.2%. Moreover, in “in vitro [2]”, the viability at 28.5 h, 3 µM came to 98.2%; the viability at 28.5 h, 10 µM worked out at 101%; the viability at 28.5 h, 30 µM amounted to 112%. Besides, the MIC in data set [3] came to 11.7 µM (≈ 3.49 µg/mL).
With `Cc1ccc2[nH]c3c(c2c1)CCOC31CCN(Cc2ccccc2-c2ccccc2)CC1` [c22e], the IC50 in data set [1] was 1.8 µM. In the data set “in vitro [2]”, the viability at 28.5 h, 0.000416667 µM is 98.6%; the viability at 28.5 h, 0.00125 µM is 89.4%; the viability at 28.5 h, 0.00375 µM is 94.8%; the viability at 28.5 h, 0.0123333 µM stood at 87.6%. In “in vitro [2]”, the viability at 28.5 h, 0.037 µM worked out at 94.6%; the viability at 28.5 h, 0.111 µM came to 86.6%; the viability at 28.5 h, 0.333 µM turned out to be 87.8%; the viability at 28.5 h, 1 µM was 85.7%. In “in vitro [2]”, the viability at 28.5 h, 3 µM was 85.7%; the viability at 28.5 h, 10 µM turned out to be 86.9%; the viability at 28.5 h, 30 µM turned out to be 70.7%. Moreover, the MIC in data set [3] came to 3.81 µM (≈ 1.61 µg/mL).
On to `c1cnc2c(c1)cc([C@@H]1CCCO1)n2CCN1CCCCC1` [CBK282273], for which the % viability in the data set with HeLa is 109%. In the data set “in vitro [4]”, the viability at 28.5 h, 10 µM is 101%.
Taken in the same sequence, the figures for `COC(=O)[C@@H]1Cc2c([nH]c3ccccc23)[C@H]2C[C@H](NCCO)C[C@@H](c3ccccc3)N21` [CBK289167] were 97.8% and 94.8%.
Taken in the same sequence, the figures for `COc1cc2[nH]c(=S)n(C3CCCC3)c(=O)c2cc1OC` [CBK288518] were 93.5% and 84.9%.
For `O=C(O)CCc1ccc(-c2cccs2)n1-c1cc(Cl)ccc1O` [CBK131890], in that order: 106% and 104%.
As to `C[C@H](Cn1nc2c(cc1=O)CCCCC2)NC(=O)c1ccc(F)cc1` [CBK284557], in the data set with HeLa, the % viability was found to be 93.4%. Besides, the viability at 28.5 h, 10 µM in the data set “in vitro [4]” turned out to be 98.4%.
Taken in the same sequence, the figures for `O=C(O)C1Cc2c([nH]c3ccccc23)C(c2ccc(Cl)cc2Cl)N1` (stereo not shown) [CBK115930] were 96.2% and 88.5%.
For `CCN(Cc1ccccc1)C(=O)NCc1cc(C)on1` [CBK155211], the % viability with HeLa turned out to be 92.6%. Also, the viability at 28.5 h, 10 µM in “in vitro [4]” came to 106%.
As to `CCn1c(C)nc2cc(C(=O)N3N=CCC3(O)C(F)(F)F)ccc21` (stereo not shown) [CBK019301], in the data set on HeLa, the % viability came out at 108%. Moreover, the viability at 28.5 h, 10 µM in the data set “in vitro [4]” is 105%.
Taken in the same sequence, the figures for `Cc1onc(-c2ccccc2)c1C(=O)NCCNC(=O)c1c(-c2ccccc2)noc1C` [CBK085092] were 108% and 106%.
For `CCOC(=O)CSc1nc2ccccc2nc1NC(C)C` [CBK107166], in that order: 111% and 101%.

These data come from publication PMC12040169 (PLOS Biology, 2025).
